In patent US20110176998A1, “IMAGING AND THERAPY OF VIRUS-ASSOCIATED TUMORS” (THE JOHNS HOPKINS UNIVERSITY, priority 2007, published 2011):

Columns and labels:
[1] = cited from earlier work
[2] = in vivo; cited from earlier work
[3] = earlier clinical use of FIAU (toxicity); format: in vivo, humans; details: conservatively estimated
Experimental: With regard to the potential clinical use of BETR therapy, FIAU-associated toxicity warrants discussion. FIAU was previously investigated as an antiviral agent. […] In those trials, treatment for less than four weeks with a cumulative dose less than 200 mg was not associated with either clinical or biochemical evidence of toxicity. Thus, the “no-effect dose” of FIAU might be conservatively estimated to be on the order of 0.1 mg/kg per administration. […] Extrapolating from xenograft experiments, a radiotherapeutic effect is likely to be achieved at doses of FIAU that are orders of magnitude times less than the no-effect FIAU dose in humans.

[4] = serum and whole blood; 24 hour period; cited from earlier work
[5] = tested on: EBV(+) Burkitt's lymphoma cell line (Akata); assay: tumor growth, EBV(+) Burkitt's lymphoma (Akata) xenografts; format: in vivo, SCID mice; details: bortezomib followed by [131I]FIAU; second cell line
Experimental: (§1) Therefore, an evaluation of a therapeutic isotope was carried out. As described above, SCID mice engrafted with EBV Burkitt's lymphoma xenografts received either buffer or bortezomib followed the next day by treatment with [^131I]FIAU or no treatment. […] Thus, bortezomib allowed targeting of [^131I]FIAU with therapeutic effect. Other proteasome inhibitors are also likely to be active. Several are in clinical trial.

[6] = tested on: EBV(+) Burkitt's lymphoma (Rael); assay: tumor growth, EBV(+) Burkitt's lymphoma (Rael) xenografts; format: in vivo, SCID mice
Experimental: as §1
(§2) Biostatistics. Linear regression and curve fitting were undertaken carried using GraphPad Prism software version 5.00 for Windows, GraphPad Software, San Diego Calif. USA, www.graphpad.com.

[7] = tested on: human osteosarcoma 143B cells expressing EBV TK; assay: tumor growth, EBV-TK expressing 143B tumors; format: in vivo, mice
Experimental: To determine whether EBV-TK mediated concentration of radioisotope in tumor tissue was adequate to achieve a therapeutic effect, mice with tumors were treated with [^131I]FIAU or buffered saline (FIG. 18A-18C).
as §2

[8] = scale-up of mouse biodistribution data to the human, MIRD dosimetry (OLINDA)
Text: Murine biodistribution data were converted to equivalent human data for dosimetry by assuming that the organ or tumor to whole-body concentration ratio in the mouse is equivalent to that in the human.
The initial (i.e., 2-h) activity concentration in the mouse tumor of 1.95% ID/g becomes 7×10^−4% ID/g, assuming a 1 gm tumor in the human. At this concentration, and assuming negligible biological clearance of ^131I, as shown in the biodistribution data, the absorbed dose per administered activity to a 1 gm tumor in a 70 kg human is 0.1 mGy/MBq (0.38 rad/mCi). […] The 5 to 20 GBq (135 to 540 mCi) required to deliver this dose-range is well within normal organ tolerance given the normal organ absorbed dose estimates listed in the table. A total administered activity of 20 GBq would result in 0.2 and 0.02 Gy to the kidneys and red marrow, respectively. Based on external beam and radiopeptide experience, the kidneys can tolerate 25 to 27 Gy before the onset of toxicity; the red marrow maximally tolerated dose is 2 Gy. Administration of a 540 mCi dose would likely present logistical problems, but these could be accommodated by fractioning the administration over three to four injections.

[9] = tested on: EBV(+) gastric adenocarcinoma (KT); assay: tumor growth, EBV(+) gastric adenocarcinoma (KT) xenograft; details: bortezomib induction followed by [131I]FIAU
Experimental: Bortezomib was administered intravenously at 1.67 μg/gram. […] For imaging or treatment, FIAU was administered 24 hours after bortezomib. In each of the experiments described bortezomib was administered as a single dose.

[10] = tested on: KSHV(+) primary effusion lymphoma (BCBL1); assay: tumor growth, KSHV(+) primary effusion lymphoma (BCBL1) xenograft; format: in vivo, SCID mice; details: bortezomib induction followed by [131I]FIAU
Text: The approach observed in EBV-associated tumors is also applicable to other KSHV-associated tumors as shown in studies on two primary effusion lymphoma (PEL) cell lines that harbor KSHV. […] Finally, when induction with bortezomib was followed by treatment with [^131I]FIAU tumors regressed (FIG. 19C).

[11] = total administered activity of 20 GBq

SMILES | toxicity of chronic dosing ([1]; earlier antiviral trials) | cumulative dose not associated with clinical or biochemical evidence of toxicity ([1]; treatment for less than four weeks) | blood-brain barrier penetration [2] | no-effect dose [3] | labeled compound remaining unchanged [4] | tumor growth [5] | tumor growth ([6]; bortezomib followed 24 hours later by [131I]FIAU) | tumor growth curves vs buffer alone ([6]; buffer followed by [131I]FIAU) | tumor growth rate in chimeric tumors ([7]; 10% of tumor cells harbor the EBV-TK, 1.7 mCi) | tumor growth dose response ([7]; EBV-TK expressing tumors, 1 mCi or 3 mCi) | tumor growth slope ([7]; TK tumors, 1.6 mCi IV) | tumor activity concentration scaled to the human ([8]; assuming a 1 gm tumor in the human) | absorbed dose to the kidneys [8, 11] | absorbed dose to the red marrow [8, 11] | tumor growth rate [9] | tumor growth [10]
O=c1[nH]c(=O)n([C@@H]2O[C@H](CO)[C@@H](O)[C@@H]2F)cc1I [FIAU, 2′-fluoro-2′-deoxy-β-D-5-iodouracil-arabinofuranoside] | hepatic damage and in some cases fatality | less than 200 mg | does not penetrate the blood-brain barrier | ~0.1 mg/kg per administration | 97.8%±0.1% | – | – | – | – | – | – | – | – | – | – | –
O=c1[nH]c(=O)n([C@@H]2O[C@H](CO)[C@@H](O)[C@@H]2F)cc1[131I] [[^131I]FIAU] | – | – | – | – | – | parallel results | stopped tumor growth | similar | substantially slowed | increasing effects on tumor growth | flattened | 7×10^−4 % ID/g | 0.2 Gy | 0.02 Gy | diminished | regressed
